Test results from ChEMBL document CHEMBL3232868, “Programmable DNA-binding small molecules” (Bioorg Med Chem, 2013).
pIC50, pKd: −log10 of the molar value. Blank lines part the entries; values can stand above or below the compound they belong to.

Key:
[1] = Binding affinity to 5'-TGTTAT-3' DNA (unknown origin)
[2] = Binding affinity to 5'-WGWWCW-3' DNA (unknown origin)
[3] = Binding affinity to DNA HRE binding site (unknown origin) by DNase 1 footprint titrations method
[4] = organism: Homo sapiens; test: Binding affinity to DNA HRE binding site (unknown origin) assessed as inhibition of HIF-1alpha/ARNT heterodimer binding
[5] = test system: Human papillomavirus type 16; test: Antiviral activity against HPV16 assessed as inhibition of viral replication; format: functional, organism-based; details: Human papillomavirus 16
[6] = Binding affinity to rat TGF-beta1 promoter AP1 binding site by gel mobility shift and SPR method

Structure (SMILES): CN(CCCN)CCCNC(=O)CCNC(=O)c1cc(NC(=O)c2cc(NC(=O)c3cc(NC(=O)c4cc(NC(=O)CCCNC(=O)c5cc(NC(=O)c6cc(NC(=O)c7cc(NC(=O)c8nccn8C)cn7C)cn6C)cn5C)cn4C)cn3C)cn2C)cn1C
pKd [1]: 8.96

Structure (SMILES): CN(CCCNC(=O)c1cccc(C(=O)O)c1)CCCNC(=O)c1cc(NC(=O)c2cc(NC(=O)c3cc(NC(=O)c4nc(NC(=O)C[C@@H](CNC(=O)c5cc(NC(=O)c6cc(NC(=O)c7cc(NC(=O)c8nccn8C)cn7C)cn6C)cn5C)NC(=O)c5ccc([N+](=O)[O-])cc5)cn4C)cn3C)cn2C)cn1C
pIC50 [2]: 8.00

Structure (SMILES): CN(CCCNC(=O)c1cccc(C(=O)O)c1)CCCNC(=O)c1cc(NC(=O)c2cc(NC(=O)c3cc(NC(=O)c4nc(NC(=O)C[C@@H](CNC(=O)c5cc(NC(=O)c6cc(NC(=O)c7cc(NC(=O)c8nccn8C)cn7C)cn6C)cn5C)NC(=O)c5ccccn5)cn4C)cn3C)cn2C)cn1C
pIC50 [2]: 7.68

Structure (SMILES): CC(=O)Nc1cc(C(=O)Nc2cc(C(=O)NCCC(=O)Nc3cc(C(=O)Nc4cn(C)c(C(=O)Nc5cc(C(=O)NCCCC(=O)Nc6cc(C(=O)Nc7cc(C(=O)Nc8cc(C(=O)NCCC(=O)Nc9cn(C)c(C(=O)Nc%10cc(C(=O)NCCC(=O)NCCCN(C)C)n(C)c%10)n9)n(C)c8)n(C)c7)n(C)c6)n(C)c5)n4)n(C)c3)n(C)c2)n(C)c1
pKd [6]: 8.84

Continued, values first:

Ka [3]: 6.3 ×10⁹ /M
INH [4]: 0.25 nM
Structure (SMILES): CN(CCCNC(=O)c1cc(NC(=O)c2cc(NC(=O)c3nc(NC(=O)c4cc(NC(=O)[C@H](N)CCNC(=O)c5nc(NC(=O)c6cc(NC(=O)c7cc(NC(=O)c8sccc8Cl)cn7C)cn6C)cn5C)cn4C)cn3C)cn2C)cn1C)CCCNC(=S)Nc1ccc(-c2c3ccc(=O)cc-3oc3cc(O)ccc23)c(C(=O)O)c1

pIC50 [5]: 4.48
Structure (SMILES): Cn1cc(NC(=O)c2cc(NC(=O)c3cc(NC=O)cn3C)cn2C)cc1C(=O)NCCC(=N)N [STALLIMYCIN]

pIC50 [2]: 7.89
Structure (SMILES): CN(CCCNC(=O)c1cccc(C(=O)O)c1)CCCNC(=O)c1cc(NC(=O)c2cc(NC(=O)c3cc(NC(=O)c4nc(NC(=O)C[C@@H](CNC(=O)c5cc(NC(=O)c6cc(NC(=O)c7cc(NC(=O)c8nccn8C)cn7C)cn6C)cn5C)NC(=O)c5ccc(-c6ccccc6)cc5)cn4C)cn3C)cn2C)cn1C
